This note sets out measurements from ChEMBL document CHEMBL1201862, “PubChem BioAssay data set” (2004).

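Cultured in 96-well plates, cells were exposed to test compound for 48 hours across five concentrations. Here, GI50 denotes the concentration required for 50% inhibition of growth.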 Active and inactive are the calls of the source. No stated cut-off is given here; in the data, active = GI50 up to about 1.1 µM and inactive = higher.

Test systems include SK-MEL-28; SN12C; SK-MEL-2; MDA-MB-435; SR; Hs-578T; HL-60; ACHN; SNB-75; T47D; 786-0; SK-OV-3; HT-29; CCRF-CEM; NCI-H522; TK-10; SF-268; NCI-H460; NCI-H226; K562.
Holding throughout (assay): DTP human tumour cell line panel, 48 h

Broadly, the GI50 is the concentration that inhibits growth by half.

For `NCCC1([N+](=O)[O-])CCNCC1`, the GI50 was > 26.8 µM (inactive) in the assay on SK-MEL-28; > 100 µM (inactive) with SN12C; > 100 µM (inactive) with SK-MEL-2; > 100 µM (inactive) with MDA-MB-435; > 100 µM (inactive) in the assay on SR; > 100 µM (inactive) with Hs-578T. For the same compound, the GI50 in the assay with HL-60, in the assay on ACHN, in the assay on SNB-75, in the assay with T47D, with 786-0 and in the assay on SK-OV-3 was > 100 µM (inactive) each time. For the same compound, the GI50 is > 100 µM (inactive) with HT-29; > 100 µM (inactive) with CCRF-CEM; > 86.5 µM (inactive) with NCI-H522; > 100 µM (inactive) in the assay with TK-10; > 100 µM (inactive) in the assay with SF-268; > 100 µM (inactive) in the assay with NCI-H460. In addition, the GI50 in the assay with NCI-H226 and in the assay on K562 was > 100 µM (inactive) in each case.

As for `Nc1nncc2[nH]cnc12`, the GI50 in the assay with SK-MEL-28 was > 100 µM (inactive); in the assay with SN12C, > 79.4 µM (inactive); with SK-MEL-2, > 100 µM (inactive); in the assay with MDA-MB-435 it was > 74.3 µM (inactive); with SR, > 100 µM (inactive); with Hs-578T, > 78.7 µM (inactive). Further, the GI50 was 15 µM (inactive) in the assay on HL-60; 50.1 µM (inactive) in the assay with ACHN; > 56.9 µM (inactive) in the assay on SNB-75; > 75.9 µM (inactive) in the assay with T47D; 48.3 µM (inactive) with 786-0; 41.5 µM (inactive) in the assay with SK-OV-3. Besides, the GI50 in the assay on HT-29 was 39.4 µM (inactive); with CCRF-CEM it was 5.09 µM (inactive); with NCI-H522, > 100 µM (inactive); in the assay on TK-10, > 50.1 µM (inactive); in the assay on SF-268, 50.5 µM (inactive); in the assay with NCI-H460, 90.6 µM (inactive). Besides, the GI50 is > 100 µM (inactive) in the assay on NCI-H226 and 7.01 µM (inactive) in the assay with K562.

As to `O=C(NC1CCCCC1NC(c1ccccc1)(c1ccccc1)c1ccccc1)C(=O)NC1CCCCC1NC(c1ccccc1)(c1ccccc1)c1ccccc1` (stereo not given), the GI50 in the assay on SK-MEL-28 was > 100 µM (inactive); with SN12C, > 100 µM (inactive); with SK-MEL-2, > 100 µM (inactive); in the assay with MDA-MB-435 it was > 100 µM (inactive); in the assay on SR it was > 100 µM (inactive); in the assay on Hs-578T, 13.6 µM (inactive). In addition, the GI50 was > 100 µM (inactive) in the assay on HL-60; 92 µM (inactive) in the assay on ACHN; 1.63 µM (inactive) with SNB-75; 60.4 µM (inactive) with T47D; 53.7 µM (inactive) in the assay with 786-0; 28.6 µM (inactive) in the assay on SK-OV-3. Further, the GI50 was > 100 µM (inactive) with HT-29; > 100 µM (inactive) in the assay with CCRF-CEM; 89.9 µM (inactive) in the assay on NCI-H522; > 100 µM (inactive) in the assay on TK-10; 24 µM (inactive) in the assay on SF-268; > 100 µM (inactive) with NCI-H460. Moreover, the GI50 in the assay with NCI-H226 is 59.3 µM (inactive); with K562 it was > 100 µM (inactive).

`Nc1ncnc2c1ncn2[C@@H]1O[C@H](COC(c2ccccc2)(c2ccccc2)c2ccccc2)[C@@H](OC(=S)Oc2ccccc2)[C@@H]1F`: the GI50 is 15.2 µM (inactive) in the assay on SK-MEL-28; 4.46 µM (inactive) with SN12C; 5.47 µM (inactive) in the assay on SK-MEL-2; 4.03 µM (inactive) in the assay on MDA-MB-435; 2.72 µM (inactive) with SR; 6.28 µM (inactive) with Hs-578T. The GI50 with HL-60 was 3.18 µM (inactive); with ACHN, 10.7 µM (inactive); in the assay on SNB-75, 14.8 µM (inactive); in the assay with T47D, 8.2 µM (inactive); in the assay on 786-0, 4.58 µM (inactive); with SK-OV-3, 14.1 µM (inactive). Moreover, the GI50 was 6.67 µM (inactive) with HT-29; 2.5 µM (inactive) in the assay with CCRF-CEM; 2.24 µM (inactive) in the assay with NCI-H522; 17.6 µM (inactive) in the assay with TK-10; 3.66 µM (inactive) with SF-268; 13.1 µM (inactive) in the assay with NCI-H460. The GI50 with NCI-H226 was 11.4 µM (inactive); with K562, 3.34 µM (inactive).

Take `c1cc(-c2ccc(-c3ccc(C4=NCCCN4)cc3)o2)ccc1C1=NCCCN1`: the GI50 was 25.1 µM (inactive) in the assay on SK-MEL-28; 4.18 µM (inactive) in the assay on SN12C; > 100 µM (inactive) in the assay on SK-MEL-2; 33.5 µM (inactive) with MDA-MB-435; > 100 µM (inactive) with SR; 98.6 µM (inactive) in the assay with Hs-578T. The GI50 is > 100 µM (inactive) in the assay with HL-60; > 100 µM (inactive) in the assay on ACHN; 43 µM (inactive) in the assay on SNB-75; 59.7 µM (inactive) in the assay on T47D; 61.5 µM (inactive) in the assay on 786-0; > 100 µM (inactive) in the assay with SK-OV-3. Also, the GI50 is 76.4 µM (inactive) with HT-29; > 100 µM (inactive) in the assay with CCRF-CEM; 81.3 µM (inactive) in the assay on NCI-H522; 50.2 µM (inactive) in the assay with TK-10; > 100 µM (inactive) with SF-268; 14.6 µM (inactive) in the assay on NCI-H460. For the same compound, the GI50 is 54 µM (inactive) with NCI-H226 and 40.6 µM (inactive) with K562.

In the case of `CC(/C=C/c1ccccc1)=N\NC(=S)N/N=C(C)/C=C/c1ccccc1`, the GI50 with SK-MEL-28 is 15.4 µM (inactive); with SN12C, 34.4 µM (inactive); in the assay with SK-MEL-2, 10.9 µM (inactive); in the assay on MDA-MB-435 it was 15.5 µM (inactive); in the assay on SR, 5.93 µM (inactive); with Hs-578T, > 100 µM (inactive). Moreover, the GI50 was 8.67 µM (inactive) in the assay with HL-60; 23.6 µM (inactive) in the assay on ACHN; 22.5 µM (inactive) in the assay with SNB-75; 13.9 µM (inactive) in the assay with T47D; 11 µM (inactive) in the assay on 786-0; 13.3 µM (inactive) with SK-OV-3. Moreover, the GI50 is 8.69 µM (inactive) in the assay on HT-29; 6.38 µM (inactive) with CCRF-CEM; 25.3 µM (inactive) in the assay on NCI-H522; 20.5 µM (inactive) in the assay on TK-10; 4.22 µM (inactive) with SF-268; 5.11 µM (inactive) in the assay on NCI-H460. The GI50 was 21 µM (inactive) in the assay on NCI-H226 and 4.86 µM (inactive) in the assay with K562.

As for `Cc1ccc(-c2c3nc(c(-c4ccc(C)cc4)c4ccc([nH]4)c(-c4ccc(OCC5COC(C)(C)O5)cc4)c4nc(c(-c5ccc(C)cc5)c5ccc2[nH]5)C=C4)C=C3)cc1` (stereo not given), the GI50 was > 31.6 µM (inactive) in the assay with SK-MEL-28; > 31.6 µM (inactive) with SN12C; > 31.6 µM (inactive) with SK-MEL-2; > 31.6 µM (inactive) in the assay on MDA-MB-435; > 31.6 µM (inactive) in the assay with SR; 10.3 µM (inactive) with Hs-578T. The GI50 in the assay on HL-60 is > 10 µM (inactive); in the assay with ACHN it was > 31.6 µM (inactive); with SNB-75, 10.2 µM (inactive); in the assay on T47D, > 31.6 µM (inactive); with 786-0 it was > 31.6 µM (inactive); with SK-OV-3 it was > 10 µM (inactive). Also, the GI50 in the assay with HT-29 was > 31.6 µM (inactive); with CCRF-CEM, > 10 µM (inactive); in the assay with NCI-H522, > 31.6 µM (inactive); in the assay on TK-10 it was 21 µM (inactive); with SF-268, > 31.6 µM (inactive); with NCI-H460, > 31.6 µM (inactive). Besides, the values for the GI50 in the assay on NCI-H226 and in the assay with K562 were > 31.6 µM (inactive) and > 10 µM (inactive), respectively.

Regarding `CCC(=S)N(C)O`, the GI50 with SK-MEL-28 was 57.4 µM (inactive); in the assay with SN12C, 22 µM (inactive); in the assay on SK-MEL-2, 29.4 µM (inactive); in the assay with MDA-MB-435, 15.6 µM (inactive); in the assay with SR, 1.02 µM (active); in the assay with Hs-578T, > 100 µM (inactive). The GI50 in the assay on HL-60 is 1.48 µM (inactive); in the assay on ACHN, 35.2 µM (inactive); with SNB-75 it was 41 µM (inactive); with T47D, 46.1 µM (inactive); in the assay with 786-0, 11.6 µM (inactive); with SK-OV-3, 76.9 µM (inactive). For the same compound, the concentration for 50% growth inhibition (GI50) was 0.839 µM (active) with HT-29; 0.459 µM (active) with CCRF-CEM; 0.41 µM (active) with NCI-H522; 60.1 µM (inactive) in the assay on TK-10; 47.4 µM (inactive) in the assay on SF-268; 10.1 µM (inactive) with NCI-H460. Moreover, the GI50 in the assay with NCI-H226 is 54.7 µM (inactive); in the assay on K562, 0.52 µM (active).

Regarding `CC(C)(C)C(=O)CP(=O)(O)O`, the GI50 in the assay on SK-MEL-28, with SN12C, in the assay with SK-MEL-2, in the assay on MDA-MB-435, with SR and with Hs-578T was > 100 µM (inactive) each time. In addition, the GI50 in the assay with HL-60, with ACHN, in the assay with SNB-75, in the assay on T47D, in the assay with 786-0 and with SK-OV-3 was > 100 µM (inactive) throughout. Further, the GI50 in the assay on HT-29, with CCRF-CEM, in the assay with NCI-H522, in the assay with TK-10, in the assay on SF-268 and with NCI-H460 was > 100 µM (inactive) each time. Also, the GI50 with NCI-H226 and in the assay with K562 was > 100 µM (inactive) throughout.

For the compound `Cc1cc(-c2nc3c(O)cccc3s2)ccc1N`, the GI50 in the assay with SK-MEL-28 was 57.9 µM (inactive); in the assay with SN12C, 27.2 µM (inactive); with SK-MEL-2 it was 22.7 µM (inactive); in the assay on MDA-MB-435 it was 17.7 µM (inactive); with SR, 25.5 µM (inactive); in the assay on Hs-578T, 18.2 µM (inactive). The GI50 in the assay with HL-60 was 19.3 µM (inactive); with ACHN, 17.2 µM (inactive); with SNB-75, 83.6 µM (inactive); in the assay on T47D, 74.5 µM (inactive); in the assay on 786-0 it was 29.3 µM (inactive); in the assay with SK-OV-3, 39.1 µM (inactive). For the same compound, the GI50 in the assay with HT-29 was 21.8 µM (inactive); in the assay with CCRF-CEM, 27.3 µM (inactive); in the assay on NCI-H522, 17.2 µM (inactive); with TK-10, 26.8 µM (inactive); in the assay on SF-268 it was 21 µM (inactive); in the assay on NCI-H460, 30.5 µM (inactive). The GI50 is 31.6 µM (inactive) in the assay with NCI-H226 and 39.2 µM (inactive) in the assay with K562.
